Reference: patent US20260042764A1, “COMPOSITIONS AND METHODS FOR INHIBITION OF KRAS” (TheRas, Inc., priority 2022, published 2026)

Tests used:
[1] = molecular target: T1, Avi-KRAS WT (2-169) GTP/RAF1 RBD-3xFLAG (51-131) (Homo sapiens, UniProt P01116); test: Raf1-KRAS WT-GTP disruption HTRF assay (Biological Example 3); type: binding; conditions: KRAS WT, GTP-loaded
T1 construct: Avi-KRAS WT (2-169)
Summary of the method: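 An HTRF assay measured disruption of 50 nM Avi-KRAS (2-169)-GTP (WT, G12C, G12D or G12V) bound to RAF1 RBD-3xFLAG (51-131). Buffer was Tris pH 7.5 with 5 mM MgCl2 and 10% DMSO. Compounds (30–0.005 μM, 3-fold, 10 points) were incubated 1 h at room temperature, and activity is given as % of DMSO.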

[2] = system: GP2d cells (KRAS G12D); test: Cell-based pERK HTRF assay in GP2d cell (Biological Example 2); conditions: GP2d (KRAS G12D) cells
Summary of the method: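 Cells grown in DMEM with 10% FBS were exposed to compound for 60 min at 0.25% DMSO, using a 9-point half-log series starting at 1 μM or 100 nM. Lysates were then mixed with d2 and Eu cryptate antibodies for 4–24 h at room temperature, and pERK was read by HTRF.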

[3] = molecular target: T2, Avi-KRAS G12D (1-169) GppNHp/RAF1 RBD-3xFLAG (52-151) (Homo sapiens, UniProt P01116, G12D); test: Raf1-KRAS G12D-GppNHP disruption HTRF assay (Biological Example 1); type: binding
T2 construct: Avi-KRAS G12D (1-169)
T2 sequence (P01116 1-169 isoform P01116-2 G12D): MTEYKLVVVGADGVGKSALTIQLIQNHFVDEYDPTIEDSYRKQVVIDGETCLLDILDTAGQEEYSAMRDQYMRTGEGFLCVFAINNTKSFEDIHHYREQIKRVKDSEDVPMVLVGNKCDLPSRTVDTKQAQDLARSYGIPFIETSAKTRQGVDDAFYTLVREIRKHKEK
Summary of the method: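 Percent activity versus DMSO (100%) was derived from HTRF signal after KRAS–RAF1 RBD protein mix was incubated 1 h at room temperature with shaking and detection reagents were added for a further 1 h.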

[4] = KRAS G12D, GppNHp-loaded, class symbols
[5] = KRAS G12D, GppNHp-loaded, Table 11

T1 sequence (P01116 2-169 isoform P01116-2): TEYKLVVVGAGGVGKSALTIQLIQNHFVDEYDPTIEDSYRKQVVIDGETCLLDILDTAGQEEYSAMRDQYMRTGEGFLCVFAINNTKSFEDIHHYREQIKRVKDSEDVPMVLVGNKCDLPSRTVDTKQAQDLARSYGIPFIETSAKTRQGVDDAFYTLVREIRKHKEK

IC50 [1] [nM]	IC50 [2] [nM]	IC50 ([2]; GP2d, pERK HTRF, class symbols) [nM]	IC50 [3, 4] [nM]	IC50 ([2]; GP2d) [nM]	IC50 ([2]; GP2d, pERK HTRF) [nM]	IC50 [3, 5] [nM]	IC50 ([3]; KRAS G12D-GppNHp/RAF1 RBD HTRF) [nM]	IC50 ([2]; pERK HTRF) [nM]	SMILES
100 to 1000	–	< 100	< 100	< 100	–	–	–	–	CCN(c1nc(OC[C@@]23CCCN2C[C@H](F)C3)nc2c(F)c(-c3ccc(F)c4sc(N)c(C#N)c34)c(C(F)(F)F)cc12)[C@H]1C[C@@H](C)N(C(=O)[C@H]2CCO2)C1 (atropisomer, axis not shown) [Compound 752]
100 to 1000	–	< 100	< 100	< 100	–	–	–	–	CCN(c1nc(OC[C@@]23CCCN2C[C@H](F)C3)nc2c(F)c(-c3ccc(F)c4sc(N)c(C#N)c34)c(C(F)(F)F)cc12)[C@H]1CCN(C(=O)C2CN(C(C)=O)C2)C1 (atropisomer, axis not shown) [Compound 638]
1000 to 10000	< 100	< 100	100 to 1000	–	–	–	–	–	CCN(c1nc(OC[C@@]23CCCN2C[C@H](F)C3)nc2c(F)c(-c3ccc(F)c4sc(N)c(C#N)c34)c(C(F)(F)F)cc12)[C@@H]1CC(=O)N(C2CC2)C1 (atropisomer, axis not shown) [Compound 703]
100 to 1000	–	< 100	< 100	< 100	–	–	–	–	CCN(c1nc(OC[C@@]23CCCN2C[C@H](F)C3)nc2c(F)c(-c3ccc(F)c4sc(N)c(C#N)c34)c(C(F)(F)F)cc12)[C@H]1C[C@H](COC)N(C(=O)C2CC2)C1 (atropisomer, axis not shown) [Compound 696]
100 to 1000	–	< 100	< 100	< 100	–	–	–	–	CCN(c1nc(OC[C@@]23CCCN2C[C@H](F)C3)nc2c(F)c(-c3ccc(F)c4sc(N)c(C#N)c34)c(C(F)(F)F)cc12)[C@H]1CCN(C(=O)[C@@H]2C[C@@H]2C)C1 (atropisomer, axis not shown) [Compound 689]
100 to 1000	–	< 100	100 to 1000	< 100	–	–	–	–	Cc1c(C(=O)N2CCCC2)nn2c1CN(c1nc(OCC34CCCN3CC(F)C4)nc3c(F)c(-c4ccc(F)c5sc(N)c(C#N)c45)c(C(F)(F)F)cc13)CC2 (stereo not shown) [Compound 744]
≤ 100	–	< 100	< 100	< 100	–	–	–	–	CCN(c1nc(OC[C@@]23CCCN2C[C@H](F)C3)nc2c(F)c(-c3ccc(F)c4sc(N)c(C#N)c34)c(C(F)(F)F)cc12)[C@H]1CCN(C(=O)N(C)C)[C@@H]1C (atropisomer, axis not shown) [Compound 749]
100 to 1000	–	< 100	< 100	< 100	–	–	–	–	CC(=O)N1CC[C@H](N(CCF)c2nc(OC[C@@]34CCCN3C[C@H](F)C4)nc3c(F)c(-c4ccc(F)c5sc(N)c(C#N)c45)c(C(F)(F)F)cc23)C1 (atropisomer, axis not shown) [Compound 622]

Second part, the compound before the results:

SMILES	IC50 [1] [nM]	IC50 [2] [nM]	IC50 ([2]; GP2d, pERK HTRF, class symbols) [nM]	IC50 [3, 4] [nM]	IC50 ([2]; GP2d) [nM]	IC50 ([2]; GP2d, pERK HTRF) [nM]	IC50 [3, 5] [nM]	IC50 ([3]; KRAS G12D-GppNHp/RAF1 RBD HTRF) [nM]	IC50 ([2]; pERK HTRF) [nM]
Cc1c(C(=O)N(C)C)nn2c1CN(c1nc(OC[C@@]34CCCN3C[C@H](F)C4)nc3c(F)c(-c4ccc(F)c5sc(N)c(C#N)c45)c(C(F)(F)F)cc13)CC2 (atropisomer, axis not shown; (aS)) [Compound 590, 5-((S)-7-(2-amino-3-cyano-7-fluorobenzo[b]thiophen-4-yl)-8-fluoro-2-(((2R,7aS)-2-fluorotetrahydro-1H-pyrrolizin-7a(5H)-yl)methoxy)-6-(trifluoromethyl)quinazolin-4-yl)-N,N,3-trimethyl-4,5,6,7-tetrahydropyrazolo[1,5-a]pyrazine-2-carboxamide]	100 to 1000	< 100	< 100	< 100	–	–	–	–	–
N#Cc1c(N)sc2c(F)ccc(-c3c(C(F)(F)F)cc4c(N5C[C@H]6C[C@@H]5CO6)nc(OC[C@@]56CCCN5C[C@H](F)C6)nc4c3F)c12 [Compound 253, 2-amino-7-fluoro-4-[8-fluoro-2-[[(2R,8S)-2-fluoro-1,2,3,5,6,7-hexahydropyrrolizin-8-yl]methoxy]-4-[(1R,4R)-2-oxa-5-azabicyclo[2.2.1]heptan-5-yl]-6-(trifluoromethyl)quinazolin-7-yl]benzothiophene-3-carbonitrile]	100 to 1000	–	–	–	< 100	< 100	100 to 1000	–	–
CCC(=O)N1CC[C@@H](N(CC)c2nc(OC[C@@]34CCCN3C[C@H](F)C4)nc3c(F)c(-c4ccc(F)c5sc(N)c(C#N)c45)c(C(F)(F)F)cc23)C1 [Compound 327]	100 to 1000	–	–	–	< 100	< 100	–	100 to 1000	–
CCN(c1nc(OC[C@@]23CCCN2C[C@H](F)C3)nc2c(F)c(-c3ccc(F)c4sc(N)c(C#N)c34)c(C(F)(F)F)cc12)[C@H]1CCN(C(=O)[C@H]2CCO2)C1 (atropisomer, axis not shown) [Compound 577]	≤ 100	–	< 100	< 100	< 100	–	–	–	–
CCN(c1nc(OC[C@@]23CCCN2C[C@H](F)C3)nc2c(F)c(-c3ccc(F)c4sc(N)c(C#N)c34)c(C(F)(F)F)cc12)[C@@H]1CCN(C(=O)C(C)C)C1 [Compound 328]	100 to 1000	–	–	–	< 100	< 100	–	100 to 1000	–
CCN(c1nc(OC[C@@]23CCCN2C[C@H](F)C3)nc2c(F)c(-c3ccc(F)c4sc(N)c(C#N)c34)c(C(F)(F)F)cc12)[C@H]1CCN(C(=O)C2CC2)[C@@H]1C (atropisomer, axis not shown) [Compound 579]	100 to 1000	–	< 100	< 100	< 100	–	–	–	–
CN(c1nc(OC[C@@]23CCCN2C[C@H](F)C3)nc2c(F)c(-c3ccc(F)c4sc(N)c(C#N)c34)c(C(F)(F)F)cc12)[C@H]1C[C@@H](O)C1 [Compound 19, 2-amino-7-fluoro-4-((S)-8-fluoro-2-(((2R,7aS)-2-fluorotetrahydro-1H-pyrrolizin-7a(5H)-yl)methoxy)-4-(((1s,3R)-3-hydroxycyclobutyl)(methyl)amino)-6-(trifluoromethyl)quinazolin-7-yl)benzo[b]thiophene-3-carbonitrile]	≤ 100	< 100	–	–	–	–	< 100	–	< 100
CCN(c1nc(OC[C@@]23CCCN2C[C@H](F)C3)nc2c(F)c(-c3ccc(F)c4sc(N)c(C#N)c34)c(C(F)(F)F)cc12)[C@H]1CCN(C(=O)[C@@H]2CCO2)C1 (atropisomer, axis not shown) [Compound 603]	100 to 1000	–	< 100	< 100	< 100	–	–	–	–
CCN(c1nc(OC[C@@]23CCCN2C[C@H](F)C3)nc2c(F)c(-c3ccc(F)c4sc(N)c(C#N)c34)c(C(F)(F)F)cc12)[C@H]1C[C@@H](C)N(C(=O)C2COC2)C1 (atropisomer, axis not shown) [Compound 586]	100 to 1000	–	< 100	< 100	< 100	–	–	–	–
CC(=O)N1CC(N(C)c2nc(OCC34CCCN3CC(F)C4)nc3c(F)c(-c4ccc(F)c5sc(N)c(C#N)c45)c(C(F)(F)F)cc23)CC1C (stereo not shown) [Compound 291]	100 to 1000	< 100	–	–	–	–	–	100 to 1000	< 100
N#Cc1c(N)sc2c(F)ccc(-c3c(C(F)(F)F)cc4c(N5CCCOCC5)nc(OC[C@@]56CCCN5C[C@H](F)C6)nc4c3F)c12 [Compound 232]	100 to 1000	–	–	–	< 100	< 100	< 100	–	–
CCN(c1nc(OC[C@@]23CCCN2C[C@H](F)C3)nc2c(F)c(-c3ccc(F)c4sc(N)c(C#N)c34)c(C(F)(F)F)cc12)[C@H]1CC(=O)N(C2CC2)C1 (atropisomer, axis not shown) [Compound 615]	100 to 1000	–	< 100	< 100	< 100	–	–	–	–
CC(=O)N1CC[C@@H](N(C)c2nc(OC[C@@]34CCCN3C[C@H](F)C4)nc3c(F)c(-c4ccc(F)c5sc(N)c(C#N)c45)c(C(F)(F)F)cc23)[C@H]1C (single isomer, unassigned) [Compound 193]	100 to 1000	–	–	–	< 100	–	< 100	–	< 100
CCN(c1nc(OC[C@@]23CCCN2C[C@H](F)C3)nc2c(F)c(-c3ccc(F)c4sc(N)c(C#N)c34)c(C(F)(F)F)cc12)[C@H]1CCN(C(=O)N2CC(OC)C2)C1 (atropisomer, axis not shown) [Compound 607]	≤ 100	–	< 100	< 100	< 100	–	–	–	–
